Data published in PMC3723409 (Basic & clinical pharmacology & toxicology, 2009).
Where two headings read alike, the source gives them in different places.

How the values were obtained:
[1] = human, in vivo
[2] = in vivo interaction with buprenorphine; cited from earlier work
[3] = with lopinavir/ritonavir; cited from earlier work

Structure (SMILES) | Effect on pharmacokinetics / metabolism of buprenorphine [2] | further results
CO[C@]12CC[C@@]3(C[C@@H]1[C@](C)(O)C(C)(C)C)[C@H]1Cc4ccc(O[C@@H]5O[C@H](C(=O)O)[C@@H](O)[C@H](O)[C@H]5O)c5c4[C@@]3(CCN1CC1CC1)[C@H]2O5 [B3G, buprenorphine-3-glucuronide] | – | Change in renal clearance [1]: No significant changes
CC(C)Nc1cccnc1N1CCN(C(=O)c2cc3cc(NS(C)(=O)=O)ccc3[nH]2)CC1 [delavirdine] | inhibition of buprenorphine metabolism | –
O=C1Nc2ccc(Cl)cc2[C@@](C#CC2CC2)(C(F)(F)F)O1 [efavirenz] | induction | –
Cc1c(O)cccc1C(=O)N[C@@H](CSc1ccccc1)[C@H](O)CN1C[C@H]2CCCC[C@H]2C[C@H]1C(=O)NC(C)(C)C [nelfinavir] | neither nelfinavir nor the combination of lopinavir/ritonavir had any significant effect | –
CC(C)c1nc(CN(C)C(=O)N[C@H](C(=O)N[C@@H](Cc2ccccc2)C[C@H](O)[C@H](Cc2ccccc2)NC(=O)OCc2cncs2)C(C)C)cs1 [ritonavir] | increased exposure to buprenorphine | –
C[C@H](Cn1cnc2c(N)ncnc21)OCP(=O)(O)O [tenofovir] | – | Change in renal clearance [3]: decrease
